Data: PMC13672995, “NCR13 peptide protects soybean against Cercospora sojina using multi-faceted modes of action and additive interaction with chemical fungicides” (Journal of Experimental Botany, 2025)
Entries after “also recorded” stand apart in the source; their conditions may differ. Where no end group is shown, it is not given here.

Experiments:
Type in all cases: cell-based, Cercospora sojina
[1] = test system: fungicide-sensitive and -resistant isolates of C. sojina; test: In vitro antifungal activity assay (MIC stated across isolates); conditions: range over Cs320 and Cs350; 48 h
Procedure: In vitro antifungal activity of AFPs and QoI fungicides was determined using 96-well plate assays as described ([Velivelli et al., 2020]) with slight modifications. Briefly, 2- to 3-week-old C. sojina was used to make a conidial suspension in 2× SFM at the final concentration of ∼10^5 conidia ml^−1. Simultaneously, peptide dilutions (in water) at various concentrations were made. Fungicides were dissolved in 50% acetone and 50% water to make a stock solution of 500 µM, and serial dilutions were made in water as needed. The peptide–conidia or the fungicide–conidia mixture at the ratio of 1:1 (45 µl:45 µl) was added in a 96-well plate and incubated at room temperature for 48 h, after which MICs of the peptides/fungicides were calculated based on microscopy as well as the resazurin cell viability assay ([Velivelli et al., 2020]).

[2] = test system: C. sojina Cs350 conidia and germlings; test: Plasma membrane permeabilization assay (SYTOX Green)
Procedure: Membrane permeabilization of C. sojina Cs350 by NCR13_PFV1 and azoxystrobin was analyzed by visualizing the influx of SYTOX Green (SG) (Thermo Scientific) using time-lapse confocal microscopy. Germlings grown for 6–8 h or conidia of C. sojina were mixed with various concentrations of NCR13_PFV1, azoxystrobin, or both and 0.5 µM SG and were observed under confocal microscopy at an excitation wavelength of 500 nm and an emission wavelength ranging from 510 nm to 600 nm at specific time intervals. A z-stack at each time point was acquired using a ×63 water immersion objective lens (HC PL Apochromat CS2).

[3] = test system: C. sojina Cs350 cells; test: Uptake and subcellular localization by time-lapse confocal microscopy; conditions: DyLight550-labeled peptide; nuclear localization mostly at 0.75 μM (0.5× MIC); Hoechst, CMAC and BODIPY co-staining
Procedure: NCR13_PFV1 was labeled with DyLight550 amine-reactive dye following the manufacturer’s instructions (Thermo Scientific), and time-lapse confocal microscopy was performed to measure the uptake and subcellular localization of the peptide in C. sojina Cs350 cells. The nuclear staining dye Hoechst 3352 was used along with DyLight550-NCR13_PFV1 to determine the subcellular localization of NCR13_PFV1 in C. sojina. Conidia grown for 6–8 h were treated with 0.75 µM Dylight550-NCR13_PFV1 and incubated for 30 min, after which 4 µM Hoechst 3352 dye was added for another 15 min. Treated conidia were used to capture z-stacks at specific time intervals using a Leica SP8-X confocal microscope (×63 water immersion objective lens, HC PL Apochromat CS2) in fluorescence and transmitted light mode. The excitation and emission wavelengths of DyLight550-NCR13_PFV1 and Hoechst 3352 were 550 nm, 560–660 nm, and 405 nm, 420–500 nm, respectively. Similarly, to determine the subcellular localization of NCR13_PFV1 in other organelles, C. sojina conidia were also stained with the vacuole-specific dye CMAC and the lipid staining dye BODIPY 493/503 (Thermo Scientific). The excitation and emission wavelengths for CMAC and BODIPY were 405 nm, 420–500 nm, and 493 nm, 505–540 nm, respectively.

TKPCQSDKDCKKFACRKPKVPKCINGFCKCVR (disulfide (positions not given here)) [NCR13_PFV1, chickpea nodule-specific cysteine-rich 32 amino acid peptide, disulfide cross-linking variant 1, expressed in Pichia pastoris]
MIC against fungicide-sensitive and -resistant isolates of C. sojina [1]: 0.75 to 1.5 µM | plasma membrane permeabilization (SYTOX Green uptake) ([2]; Cs350, 0.5 µM SG, confocal microscopy): permeabilization of the plasma membrane | time to plasma membrane permeabilization of conidia and germlings ([2]; SYTOX Green uptake): ≤ 10 min | subcellular localization [3]: localized to the nucleus; also recorded: no evidence of co-localization of the peptide with either lipid bodies or the vacuole
